For one assay, the target named is Histone deacetylase 4 (Homo sapiens, UniProt P56524). Description: Inhibition of human recombinant HDAC4 using fluorogenic HDAC substrate class 2A by fluorescence assay.
The target of assay [1] is T1, Polyamine deacetylase HDAC10 (Homo sapiens, UniProt Q969S8).
T1 sequence (Q969S8 whole entry): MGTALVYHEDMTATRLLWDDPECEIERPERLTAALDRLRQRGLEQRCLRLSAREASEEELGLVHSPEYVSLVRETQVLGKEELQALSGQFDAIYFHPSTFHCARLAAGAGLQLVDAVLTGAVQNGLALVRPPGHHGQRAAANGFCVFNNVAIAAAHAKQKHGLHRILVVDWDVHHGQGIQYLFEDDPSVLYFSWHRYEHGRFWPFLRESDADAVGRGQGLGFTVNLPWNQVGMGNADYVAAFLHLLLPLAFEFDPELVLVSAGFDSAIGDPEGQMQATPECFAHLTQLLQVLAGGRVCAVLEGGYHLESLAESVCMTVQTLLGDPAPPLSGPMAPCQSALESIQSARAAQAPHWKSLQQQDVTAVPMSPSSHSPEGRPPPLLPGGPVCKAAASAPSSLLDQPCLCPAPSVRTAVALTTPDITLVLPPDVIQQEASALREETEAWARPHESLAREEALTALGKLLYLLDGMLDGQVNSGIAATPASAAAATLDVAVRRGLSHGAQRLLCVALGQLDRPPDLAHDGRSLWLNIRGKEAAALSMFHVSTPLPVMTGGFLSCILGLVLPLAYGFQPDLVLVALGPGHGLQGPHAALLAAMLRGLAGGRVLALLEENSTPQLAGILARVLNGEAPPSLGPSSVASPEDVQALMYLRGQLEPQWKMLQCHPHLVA
Description: Inhibition of HDAC10 (unknown origin) by fluorescence assay.

The next assay addresses T2, Histone deacetylase 11 (Homo sapiens, UniProt Q96DB2).
T2 sequence (Q96DB2 whole entry): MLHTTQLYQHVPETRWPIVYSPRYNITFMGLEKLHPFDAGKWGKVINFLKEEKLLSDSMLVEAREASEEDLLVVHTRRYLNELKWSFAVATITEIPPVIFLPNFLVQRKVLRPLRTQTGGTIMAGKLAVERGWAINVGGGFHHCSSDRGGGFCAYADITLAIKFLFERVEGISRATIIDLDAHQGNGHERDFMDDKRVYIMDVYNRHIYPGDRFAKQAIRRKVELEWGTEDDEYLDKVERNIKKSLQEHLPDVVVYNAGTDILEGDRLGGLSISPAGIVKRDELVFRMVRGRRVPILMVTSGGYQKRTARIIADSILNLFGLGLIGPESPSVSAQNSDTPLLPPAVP
Description: Inhibition of human recombinant HDAC11 using fluorogenic HDAC substrate class 2A by fluorescence assay.

Another assay concerns the target Histone deacetylase 9 (Homo sapiens, UniProt Q9UKV0). Description: Inhibition of human recombinant HDAC9 using fluorogenic HDAC substrate class 2A by fluorescence assay.
The next assay has as its target T3, Histone deacetylase 7 (Homo sapiens, UniProt Q8WUI4).
T3 sequence (Q8WUI4 whole entry): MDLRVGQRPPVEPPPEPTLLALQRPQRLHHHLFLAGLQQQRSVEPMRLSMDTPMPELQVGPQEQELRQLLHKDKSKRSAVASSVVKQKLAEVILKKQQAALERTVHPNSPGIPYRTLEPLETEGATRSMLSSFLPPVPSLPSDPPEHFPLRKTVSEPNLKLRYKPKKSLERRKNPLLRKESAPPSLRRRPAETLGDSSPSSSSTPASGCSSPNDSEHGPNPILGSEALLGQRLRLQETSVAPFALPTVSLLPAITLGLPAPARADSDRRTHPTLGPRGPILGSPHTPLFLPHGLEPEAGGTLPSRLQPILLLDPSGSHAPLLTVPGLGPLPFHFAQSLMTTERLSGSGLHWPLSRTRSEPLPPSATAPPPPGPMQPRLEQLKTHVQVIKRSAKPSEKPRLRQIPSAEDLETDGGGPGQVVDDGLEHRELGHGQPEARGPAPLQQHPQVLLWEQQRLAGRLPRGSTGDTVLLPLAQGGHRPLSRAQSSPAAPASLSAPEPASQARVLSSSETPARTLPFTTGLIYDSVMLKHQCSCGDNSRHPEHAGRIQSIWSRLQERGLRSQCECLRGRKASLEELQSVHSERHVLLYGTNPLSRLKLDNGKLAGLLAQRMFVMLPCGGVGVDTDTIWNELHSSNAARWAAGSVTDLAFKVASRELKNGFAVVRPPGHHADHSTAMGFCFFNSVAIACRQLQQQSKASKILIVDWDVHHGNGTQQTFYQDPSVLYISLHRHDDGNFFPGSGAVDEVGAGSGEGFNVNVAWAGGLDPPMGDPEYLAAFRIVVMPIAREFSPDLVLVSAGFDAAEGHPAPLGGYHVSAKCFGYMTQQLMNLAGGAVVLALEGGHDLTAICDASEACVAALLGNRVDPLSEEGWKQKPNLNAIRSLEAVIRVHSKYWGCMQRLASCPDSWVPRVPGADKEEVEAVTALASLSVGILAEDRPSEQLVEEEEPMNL
Description: Inhibition of human recombinant HDAC7 using fluorogenic HDAC substrate class 2A by fluorescence assay.

In the next assay the target is Histone deacetylase 2 (Homo sapiens, UniProt Q92769). Description: Inhibition of HDAC2 (unknown origin) using fluorogenic HDAC substrate-3 by fluorescence assay.
The target of assay [2] is T4, Protein deacetylase HDAC6 (Homo sapiens, UniProt Q9UBN7).
T4 sequence (Q9UBN7 whole entry): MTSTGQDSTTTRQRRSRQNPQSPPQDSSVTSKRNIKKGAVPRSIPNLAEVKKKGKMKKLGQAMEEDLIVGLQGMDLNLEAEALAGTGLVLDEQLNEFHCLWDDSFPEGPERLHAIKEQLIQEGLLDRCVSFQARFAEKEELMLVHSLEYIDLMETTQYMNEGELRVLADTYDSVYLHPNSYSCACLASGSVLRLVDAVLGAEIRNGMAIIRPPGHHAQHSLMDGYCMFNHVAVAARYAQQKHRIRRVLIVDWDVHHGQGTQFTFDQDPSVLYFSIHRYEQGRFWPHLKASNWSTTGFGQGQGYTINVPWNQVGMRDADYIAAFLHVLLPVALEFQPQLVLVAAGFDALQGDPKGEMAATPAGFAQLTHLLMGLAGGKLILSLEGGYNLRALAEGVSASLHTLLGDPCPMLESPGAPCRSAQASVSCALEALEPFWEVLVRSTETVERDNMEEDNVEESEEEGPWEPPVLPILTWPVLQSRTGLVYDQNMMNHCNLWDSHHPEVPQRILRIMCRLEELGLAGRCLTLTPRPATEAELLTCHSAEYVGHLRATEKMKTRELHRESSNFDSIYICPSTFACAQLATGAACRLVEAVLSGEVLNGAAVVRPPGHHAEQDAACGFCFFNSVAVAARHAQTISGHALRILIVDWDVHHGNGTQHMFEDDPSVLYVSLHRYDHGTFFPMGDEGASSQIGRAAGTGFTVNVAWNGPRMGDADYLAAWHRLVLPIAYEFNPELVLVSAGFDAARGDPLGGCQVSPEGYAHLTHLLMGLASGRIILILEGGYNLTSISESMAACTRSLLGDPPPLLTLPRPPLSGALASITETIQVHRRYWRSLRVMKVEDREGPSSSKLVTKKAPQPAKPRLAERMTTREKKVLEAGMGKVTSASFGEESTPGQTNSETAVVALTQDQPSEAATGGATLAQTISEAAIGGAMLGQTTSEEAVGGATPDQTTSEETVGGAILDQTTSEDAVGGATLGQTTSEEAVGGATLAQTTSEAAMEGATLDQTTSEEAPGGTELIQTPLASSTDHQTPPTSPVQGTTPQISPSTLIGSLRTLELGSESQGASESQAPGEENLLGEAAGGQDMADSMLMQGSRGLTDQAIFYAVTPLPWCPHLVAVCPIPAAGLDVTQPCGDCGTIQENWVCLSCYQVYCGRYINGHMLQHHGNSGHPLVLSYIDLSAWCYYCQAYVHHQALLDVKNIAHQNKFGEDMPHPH
Description: Inhibition of human recombinant HDAC6 using fluorogenic HDAC substrate-3 by fluorescence assay.

Another assay concerns the target Histone deacetylase 5 (Homo sapiens, UniProt Q9UQL6). Description: Inhibition of human recombinant HDAC5 using fluorogenic HDAC substrate class 2A by fluorescence assay.
The next assay concerns the target T5, Histone deacetylase 8 (Homo sapiens, UniProt Q9BY41).
T5 sequence (Q9BY41 whole entry): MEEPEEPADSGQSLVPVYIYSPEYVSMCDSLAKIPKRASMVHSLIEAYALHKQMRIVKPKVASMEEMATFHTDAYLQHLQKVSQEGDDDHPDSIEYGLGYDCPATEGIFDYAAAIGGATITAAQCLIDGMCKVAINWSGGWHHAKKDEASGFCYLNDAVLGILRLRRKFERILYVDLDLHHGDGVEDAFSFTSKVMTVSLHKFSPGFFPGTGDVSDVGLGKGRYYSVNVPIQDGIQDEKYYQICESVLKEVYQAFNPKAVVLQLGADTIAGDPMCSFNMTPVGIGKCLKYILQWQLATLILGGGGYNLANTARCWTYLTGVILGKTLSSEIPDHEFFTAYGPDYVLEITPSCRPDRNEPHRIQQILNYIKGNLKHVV
Description: Inhibition of human recombinant HDAC8 using fluorogenic HDAC substrate class 2A by fluorescence assay.

Assay [3] deals with T6, Histone deacetylase 1 (Homo sapiens, UniProt Q13547). Description: Inhibition of human recombinant HDAC1 using fluorogenic HDAC substrate-3 by fluorescence assay.
For a further assay, the target named is Histone deacetylase 3 (Homo sapiens, UniProt O15379). Description: Inhibition of human recombinant HDAC3 using fluorogenic HDAC substrate-3 by fluorescence assay.
The subject of the next assay is SH-SY5Y. Description: Cytotoxicity against human SH-SY5Y cells assessed as reduction in cell viability after 3 days by MTS assay. The format is functional. The settings on record: for GI50: 72 h.
In assay [4] the target is T6, Histone deacetylase 1. Description: Inhibition of HDAC1 in human SH-SY5Y cells assessed as increase in histone H3 acetylation up to 20 uM after 24 hrs by Western blot analysis. It is filed as cell-based.
For assay [5], the target named is T7, Protein deacetylase HDAC6 (Homo sapiens) (UniProt Q9UBN7).
T7 sequence (whole entry): T4 sequence (Q9UBN7 whole entry)
Description: Inhibition of HDAC6 in human H1975 cells assessed as alpha-tubulin acetylation up to 10 uM after 24 hrs by Hoechst staining-based fluorescence microscopic analysis. The format is cell-based.

Assay [6] addresses T7, Protein deacetylase HDAC6 (Homo sapiens). Description: Inhibition of HDAC6 in human H1975 cells assessed as microtubule polymerization up to 10 uM after 24 hrs by Hoechst staining-based fluorescence microscopic analysis. It is filed as cell-based.
The target is the same in assay [7]. Description: Inhibition of HDAC6 in human SH-SY5Y cells assessed as increase in alpha-tubulin acetylation at 0.5 uM after 24 hrs by Western blot analysis. The format is cell-based.
The target is the same in assay [8]. Description: Inhibition of HDAC6 in human SH-SY5Y cells assessed as increase in alpha-tubulin acetylation after 24 hrs by Western blot analysis. The format is cell-based.

Calls of active or inactive are those of the source. No cut-off for these calls is given here.

T6 sequence (Q13547 whole entry): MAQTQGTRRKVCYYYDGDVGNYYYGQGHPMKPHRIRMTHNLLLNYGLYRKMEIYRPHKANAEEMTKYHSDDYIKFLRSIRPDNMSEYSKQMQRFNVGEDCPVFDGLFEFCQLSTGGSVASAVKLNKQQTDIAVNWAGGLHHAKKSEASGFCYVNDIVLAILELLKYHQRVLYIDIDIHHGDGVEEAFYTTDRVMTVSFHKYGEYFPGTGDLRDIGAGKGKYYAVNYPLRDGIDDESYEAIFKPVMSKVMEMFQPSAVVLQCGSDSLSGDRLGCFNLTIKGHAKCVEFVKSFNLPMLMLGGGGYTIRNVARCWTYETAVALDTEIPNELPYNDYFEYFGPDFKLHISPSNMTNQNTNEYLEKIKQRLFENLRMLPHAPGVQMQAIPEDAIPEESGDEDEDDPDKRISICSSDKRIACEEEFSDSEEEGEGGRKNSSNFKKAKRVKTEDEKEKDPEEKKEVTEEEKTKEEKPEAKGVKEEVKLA
Chain of Histone deacetylase 5 (Q9UQL6 whole entry): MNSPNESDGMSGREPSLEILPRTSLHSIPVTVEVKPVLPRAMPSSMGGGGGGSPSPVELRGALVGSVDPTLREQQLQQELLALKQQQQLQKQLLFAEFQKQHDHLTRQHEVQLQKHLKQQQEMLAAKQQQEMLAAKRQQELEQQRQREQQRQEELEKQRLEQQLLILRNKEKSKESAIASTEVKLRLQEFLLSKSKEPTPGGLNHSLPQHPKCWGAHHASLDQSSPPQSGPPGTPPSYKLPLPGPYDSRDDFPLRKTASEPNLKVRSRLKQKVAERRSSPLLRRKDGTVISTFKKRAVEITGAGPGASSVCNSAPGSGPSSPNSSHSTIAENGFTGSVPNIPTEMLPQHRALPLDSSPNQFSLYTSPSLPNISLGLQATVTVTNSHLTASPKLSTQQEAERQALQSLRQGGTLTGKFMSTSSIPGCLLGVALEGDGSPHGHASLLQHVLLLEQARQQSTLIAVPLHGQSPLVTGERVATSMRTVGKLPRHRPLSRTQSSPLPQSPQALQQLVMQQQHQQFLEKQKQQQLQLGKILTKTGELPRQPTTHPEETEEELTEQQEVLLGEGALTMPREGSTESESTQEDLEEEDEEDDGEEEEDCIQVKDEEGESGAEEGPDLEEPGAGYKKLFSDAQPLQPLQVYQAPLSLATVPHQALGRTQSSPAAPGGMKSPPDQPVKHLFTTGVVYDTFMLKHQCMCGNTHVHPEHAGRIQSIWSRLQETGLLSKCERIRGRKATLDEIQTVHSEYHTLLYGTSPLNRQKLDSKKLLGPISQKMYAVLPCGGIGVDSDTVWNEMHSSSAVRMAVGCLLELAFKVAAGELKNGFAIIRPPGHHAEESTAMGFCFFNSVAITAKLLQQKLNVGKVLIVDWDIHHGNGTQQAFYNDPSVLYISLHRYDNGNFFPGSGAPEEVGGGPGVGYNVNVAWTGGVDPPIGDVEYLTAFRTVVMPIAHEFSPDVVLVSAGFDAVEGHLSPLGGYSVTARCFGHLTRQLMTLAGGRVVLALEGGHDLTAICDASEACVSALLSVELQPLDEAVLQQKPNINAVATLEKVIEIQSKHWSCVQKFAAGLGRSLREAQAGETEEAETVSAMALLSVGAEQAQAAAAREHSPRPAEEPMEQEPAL
Chain of Histone deacetylase 2 (Q92769 whole entry): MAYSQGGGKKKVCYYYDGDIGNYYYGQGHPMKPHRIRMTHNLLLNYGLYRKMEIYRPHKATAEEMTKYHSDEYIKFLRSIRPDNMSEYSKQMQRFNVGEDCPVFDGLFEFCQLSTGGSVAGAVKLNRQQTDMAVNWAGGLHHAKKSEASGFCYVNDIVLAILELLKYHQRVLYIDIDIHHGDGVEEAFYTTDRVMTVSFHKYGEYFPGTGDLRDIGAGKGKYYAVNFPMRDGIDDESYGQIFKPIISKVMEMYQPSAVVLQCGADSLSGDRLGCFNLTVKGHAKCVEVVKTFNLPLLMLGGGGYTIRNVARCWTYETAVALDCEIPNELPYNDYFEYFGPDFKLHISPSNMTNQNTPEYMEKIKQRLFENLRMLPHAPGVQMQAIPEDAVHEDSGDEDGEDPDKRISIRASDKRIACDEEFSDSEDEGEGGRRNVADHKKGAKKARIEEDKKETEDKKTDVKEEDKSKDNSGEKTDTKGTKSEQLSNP
Chain of Histone deacetylase 4 (P56524 whole entry): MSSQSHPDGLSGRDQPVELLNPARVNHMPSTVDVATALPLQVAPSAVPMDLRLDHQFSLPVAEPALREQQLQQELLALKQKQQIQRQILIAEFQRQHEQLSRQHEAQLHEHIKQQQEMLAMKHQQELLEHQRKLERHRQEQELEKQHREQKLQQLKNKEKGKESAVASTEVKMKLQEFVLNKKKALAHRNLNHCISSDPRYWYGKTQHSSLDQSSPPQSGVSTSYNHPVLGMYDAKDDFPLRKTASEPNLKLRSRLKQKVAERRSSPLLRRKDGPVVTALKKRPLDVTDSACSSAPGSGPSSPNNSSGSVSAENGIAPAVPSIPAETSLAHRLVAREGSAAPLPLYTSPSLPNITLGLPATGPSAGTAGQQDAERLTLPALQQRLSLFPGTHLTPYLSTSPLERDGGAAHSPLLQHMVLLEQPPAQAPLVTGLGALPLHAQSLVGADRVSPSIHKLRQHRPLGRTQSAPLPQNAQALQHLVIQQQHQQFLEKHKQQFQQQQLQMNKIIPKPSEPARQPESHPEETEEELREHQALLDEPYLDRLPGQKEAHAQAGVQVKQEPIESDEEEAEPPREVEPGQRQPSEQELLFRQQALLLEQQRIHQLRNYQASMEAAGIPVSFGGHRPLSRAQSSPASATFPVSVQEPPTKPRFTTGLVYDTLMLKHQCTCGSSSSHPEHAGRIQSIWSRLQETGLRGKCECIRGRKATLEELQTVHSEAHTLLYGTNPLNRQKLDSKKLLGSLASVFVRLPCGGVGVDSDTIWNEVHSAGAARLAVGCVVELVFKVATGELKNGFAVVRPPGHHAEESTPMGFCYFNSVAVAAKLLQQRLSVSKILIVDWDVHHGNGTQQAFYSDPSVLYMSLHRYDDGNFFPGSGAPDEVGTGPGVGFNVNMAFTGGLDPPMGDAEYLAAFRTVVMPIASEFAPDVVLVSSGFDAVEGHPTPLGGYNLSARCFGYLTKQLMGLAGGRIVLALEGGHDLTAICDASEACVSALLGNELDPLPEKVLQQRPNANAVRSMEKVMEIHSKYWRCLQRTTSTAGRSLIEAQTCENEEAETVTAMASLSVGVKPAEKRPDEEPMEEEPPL
Chain of Histone deacetylase 3 (O15379 whole entry): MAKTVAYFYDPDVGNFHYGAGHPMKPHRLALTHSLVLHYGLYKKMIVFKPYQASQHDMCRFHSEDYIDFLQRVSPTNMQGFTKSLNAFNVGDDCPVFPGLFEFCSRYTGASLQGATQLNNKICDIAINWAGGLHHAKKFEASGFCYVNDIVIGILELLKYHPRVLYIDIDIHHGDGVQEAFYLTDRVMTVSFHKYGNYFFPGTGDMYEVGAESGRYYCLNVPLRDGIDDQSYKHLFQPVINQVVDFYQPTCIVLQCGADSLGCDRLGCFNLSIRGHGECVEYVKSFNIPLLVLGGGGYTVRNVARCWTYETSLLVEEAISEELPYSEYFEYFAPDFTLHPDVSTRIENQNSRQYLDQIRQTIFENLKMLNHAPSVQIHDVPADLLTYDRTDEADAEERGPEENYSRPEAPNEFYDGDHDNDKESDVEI
Chain of Histone deacetylase 9 (Q9UKV0 whole entry): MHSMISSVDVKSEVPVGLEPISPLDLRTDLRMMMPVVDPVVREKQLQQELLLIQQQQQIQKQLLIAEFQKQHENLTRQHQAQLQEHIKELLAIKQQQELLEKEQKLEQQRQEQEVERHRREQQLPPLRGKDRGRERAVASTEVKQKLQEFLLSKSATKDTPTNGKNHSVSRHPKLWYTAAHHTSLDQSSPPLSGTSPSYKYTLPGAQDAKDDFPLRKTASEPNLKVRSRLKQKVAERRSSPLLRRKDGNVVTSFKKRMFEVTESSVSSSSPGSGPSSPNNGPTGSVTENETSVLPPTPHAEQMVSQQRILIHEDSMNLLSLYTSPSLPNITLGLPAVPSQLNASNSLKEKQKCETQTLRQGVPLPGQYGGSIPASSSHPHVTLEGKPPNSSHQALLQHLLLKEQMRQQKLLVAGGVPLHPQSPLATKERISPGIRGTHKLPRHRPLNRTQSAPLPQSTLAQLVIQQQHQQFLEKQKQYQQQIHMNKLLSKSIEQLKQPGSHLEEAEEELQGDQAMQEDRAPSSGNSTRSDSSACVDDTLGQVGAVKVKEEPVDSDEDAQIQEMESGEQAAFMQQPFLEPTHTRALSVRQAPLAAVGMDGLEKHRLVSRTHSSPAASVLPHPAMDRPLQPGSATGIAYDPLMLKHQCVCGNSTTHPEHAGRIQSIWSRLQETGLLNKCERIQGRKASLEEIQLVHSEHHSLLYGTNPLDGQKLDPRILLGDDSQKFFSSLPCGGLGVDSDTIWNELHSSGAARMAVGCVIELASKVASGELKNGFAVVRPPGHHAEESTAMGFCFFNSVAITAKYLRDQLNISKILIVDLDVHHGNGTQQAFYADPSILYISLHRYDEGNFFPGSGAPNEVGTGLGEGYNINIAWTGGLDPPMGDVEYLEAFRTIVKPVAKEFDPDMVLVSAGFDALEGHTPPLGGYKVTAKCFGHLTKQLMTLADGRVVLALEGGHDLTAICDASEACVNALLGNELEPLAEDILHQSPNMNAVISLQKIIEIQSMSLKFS

As to `O=C(/C=C/c1ccc2c(c1)C(=O)c1ccccc1C2=O)NO`, the IC50 is 16.2 µM on Histone deacetylase 4; 1.47 µM in [1]; above 100 µM at Histone deacetylase 11; above 100 µM at Histone deacetylase 9; above 100 µM on Histone deacetylase 7; 13.6 µM at Histone deacetylase 2. Besides, the IC50 in assay [2] is 0.536 µM; on Histone deacetylase 5, 8.59 µM; at Histone deacetylase 8, above 100 µM; at Histone deacetylase 1 [3], 3.07 µM; on Histone deacetylase 3, 1.97 µM. The Activity entry in the assay with SH-SY5Y was “Dose-dependent effect”. Further, the GI50 in the assay with SH-SY5Y is 22.3 µM.
With `O=C(NO)c1ccc2c(c1)C(=O)c1ccccc1C2=O`, at Histone deacetylase 1 [4], the inhibition result is “inactive”. The inhibition entry in assay [5], in assay [6] and in [7] was “Active” each time. For the same molecule, the half-maximal inhibitory concentration (IC50) came out at 5.61 µM at Histone deacetylase 4; 5 µM in assay [1]; 80 µM at Histone deacetylase 11; 7.78 µM at Histone deacetylase 9; 4.62 µM at Histone deacetylase 2; 0.056 µM in assay [2]. Moreover, the IC50 on Histone deacetylase 5 was 1.36 µM; at Histone deacetylase 8, 0.599 µM; at Histone deacetylase 1 [3], 0.91 µM; at Histone deacetylase 3, 3.95 µM. Also, in [8], the inhibition result is “Dose-dependent effect”. Further, the Activity entry in the assay with SH-SY5Y was “Dose-dependent effect”. Also, in the assay on SH-SY5Y, the GI50 amounted to 15.8 µM.
